The numbers were not newly measured in patent publication EP4582084A1, “CRYSTAL FORM OF KETOAMIDE DERIVATIVE AND PREPARATION METHOD THEREFOR” (Guangdong Raynovent Biotech Co., Ltd., priority 2022, dated 2024), which cites them from elsewhere.

The structures appear in SMILES notation.

This data set relates to novel coronavirus. Particulars: in vitro, preclinical trials.

One may read the EC50 as the concentration giving half of the maximal effect. On to `Cn1cnc(Cn2c(=O)[nH]/c(=N\c3cc4cn(C)nc4cc3Cl)n(Cc3cc(F)c(F)cc3F)c2=O)n1` [S-217622], for which the EC50 is 370 nM.
